Key:
[1] = test system: Methicillin Resistant Staphylococcus aureus strain USA 200; assay: Minimum inhibitory concentration (MIC), CLSI broth micro-dilution, S. aureus; assay type: cell-based; settings: Staphylococcus aureus, MRSA / USA200; Table 6; MRSA USA 200; cation adjusted Mueller Hinton Broth + 0.002% Tween-80; 35° C., 22 hours
Outline: (§1)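 Antibacterial potency is measured as MIC by the CLSI broth dilution method. Bacteria at OD600 0.0005 in Tween-80-supplemented cation-adjusted Mueller Hinton broth face ten twofold compound dilutions for 22 h at 35° C.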

[2] = test system: Escherichia coli ATCC 25922; assay: Minimum inhibitory concentration (MIC), CLSI broth micro-dilution, E. coli; assay type: cell-based; settings: Escherichia coli
Outline: as §1

[3] = ATCC25922, 22 h, Table 6, cation adjusted Mueller Hinton Broth + 0.002% Tween-80, 35° C.

Row | Structure (SMILES) | MIC [1] | MIC [2, 3] | MIC ([2]; ATCC25922, Table 6, cation adjusted Mueller Hinton Broth + 0.002% Tween-80, 35° C., 22 hours)
1 | CCCCCCOc1ccc(-c2nc(C)c(C(=O)N[C@@H](CCN)C(=O)N(C)[C@@H]3C(=O)N[C@@H](C)C(=O)N[C@H](C(=O)NCC#N)Cc4ccc(OCCN)c(c4)-c4cc3ccc4OCCN)c(C)n2)cc1 (racemic) [Compound 332, rac-(8S,11S,14S)-3,18-bis(2-aminoethoxy)-N-(cyanomethyl)-11-methyl-14-[methyl-[rac-(2S)-4-amino-2-[[2-(4-hexoxyphenyl)-4,6-dimethyl-pyrimidine-5-carbonyl]amino]butanoyl]amino]-10,13-dioxo-9,12-diazatricyclo[13.3.1.12,6]icosa-1(18),2(20),3,5,15(19),16-hexaene-8-carboxamide] | 0.0078 µM | 0.063 µM | 
2 | COCCOc1ccc(-c2nc(C)c(C(=O)N[C@@H](CCN)C(=O)N(C)[C@@H]3C(=O)N[C@@H](C)C(=O)N[C@H](C(=O)NCC#N)Cc4ccc(OCCN)c(c4)-c4cc3ccc4OCCN)c(C)n2)cc1 (racemic) [Compound 333, rac-(8S,11S,14S)-3,18-bis(2-aminoethoxy)-N-(cyanomethyl)-11-methyl-14-[methyl-[rac-(2S)-4-amino-2-[[2-[4-(2-methoxyethoxy)phenyl]-4,6-dimethyl-pyrimidine-5-carbonyl]amino]butanoyl]amino]-10,13-dioxo-9,12-diazatricyclo[13.3.1.12,6]icosa-1(18),2(20),3,5,15(19),16-hexaene-8-carboxamide] | 1 µM |  | 2 µM
3 | Cc1nc(-c2ccc3c(c2)OCCO3)nc(C)c1C(=O)N[C@@H](CCN)C(=O)N(C)[C@@H]1C(=O)N[C@@H](C)C(=O)N[C@H](C(=O)NCC#N)Cc2ccc(OCCN)c(c2)-c2cc1ccc2OCCN (racemic) [Compound 334, rac-(8S,11S,14S)-3,18-bis(2-aminoethoxy)-N-(cyanomethyl)-11-methyl-14-[methyl-[rac-(2S)-4-amino-2-[[2-(2,3-dihydro-1,4-benzodioxin-6-yl)-4,6-dimethyl-pyrimidine-5-carbonyl]amino]butanoyl]amino]-10,13-dioxo-9,12-diazatricyclo[13.3.1.12,6]icosa-1(18),2(20),3,5,15(19),16-hexaene-8-carboxamide] | 0.5 µM | 4 µM | 
4 | Cc1nc(-c2ccc(OC3CCCC3)cc2)nc(C)c1C(=O)N[C@@H](CCN)C(=O)N(C)[C@@H]1C(=O)N[C@@H](C)C(=O)N[C@H](C(=O)NCC#N)Cc2ccc(OCCN)c(c2)-c2cc1ccc2OCCN (racemic) [Compound 336, rac-(8S,11S,14S)-3,18-bis(2-aminoethoxy)-N-(cyanomethyl)-11-methyl-14-[methyl-[rac-(2S)-4-amino-2-[[2-[4-(cyclopentoxy)phenyl]-4,6-dimethyl-pyrimidine-5-carbonyl]amino]butanoyl]amino]-10,13-dioxo-9,12-diazatricyclo[13.3.1.12,6]icosa-1(18),2(20),3,5,15(19),16-hexaene-8-carboxamide] | 0.016 µM | 0.15 µM | 
5 | Cc1nc(-c2ccc(OC3CCCCC3)cc2)nc(C)c1C(=O)N[C@@H](CCN)C(=O)N(C)[C@@H]1C(=O)N[C@@H](C)C(=O)N[C@H](C(=O)NCC#N)Cc2ccc(OCCN)c(c2)-c2cc1ccc2OCCN (racemic) [Compound 337, rac-(8S,11S,14S)-3,18-bis(2-aminoethoxy)-N-(cyanomethyl)-11-methyl-14-[methyl-[rac-(2S)-4-amino-2-[[2-[4-(cyclohexoxy)phenyl]-4,6-dimethyl-pyrimidine-5-carbonyl]amino]butanoyl]amino]-10,13-dioxo-9,12-diazatricyclo[13.3.1.12,6]icosa-1(18),2(20),3,5,15(19),16-hexaene-8-carboxamide] | 0.012 µM | 0.11 µM | 
6 | Cc1nc(-c2ccc(OCCC(C)(C)C)cc2)nc(C)c1C(=O)N[C@@H](CCN)C(=O)N(C)[C@@H]1C(=O)N[C@@H](C)C(=O)N[C@H](C(=O)NCC#N)Cc2ccc(OCCN)c(c2)-c2cc1ccc2OCCN (racemic) [Compound 338, rac-(8S,11S,14S)-3,18-bis(2-aminoethoxy)-N-(cyanomethyl)-11-methyl-14-[methyl-[rac-(2S)-4-amino-2-[[2-[4-(3,3-dimethylbutoxy)phenyl]-4,6-dimethyl-pyrimidine-5-carbonyl]amino]butanoyl]amino]-10,13-dioxo-9,12-diazatricyclo[13.3.1.12,6]icosa-1(18),2(20),3,5,15(19),16-hexaene-8-carboxamide] | 0.012 µM | 0.13 µM | 
7 | CCC(CC)Oc1ccc(-c2nc(C)c(C(=O)N[C@@H](CCN)C(=O)N(C)[C@@H]3C(=O)N[C@@H](C)C(=O)N[C@H](C(=O)NCC#N)Cc4ccc(OCCN)c(c4)-c4cc3ccc4OCCN)c(C)n2)cc1 (racemic) [Compound 339, rac-(8S,11S,14S)-3,18-bis(2-aminoethoxy)-N-(cyanomethyl)-11-methyl-14-[methyl-[rac-(2S)-4-amino-2-[[2-[4-(1-ethylpropoxy)phenyl]-4,6-dimethyl-pyrimidine-5-carbonyl]amino]butanoyl]amino]-10,13-dioxo-9,12-diazatricyclo[13.3.1.12,6]icosa-1(18),2(20),3,5,15(19),16-hexaene-8-carboxamide] | 0.047 µM | 0.25 µM | 
8 | Cc1nc(-c2ccc(OC3CCCCCC3)cc2)nc(C)c1C(=O)N[C@@H](CCN)C(=O)N(C)[C@@H]1C(=O)N[C@@H](C)C(=O)N[C@H](C(=O)NCC#N)Cc2ccc(OCCN)c(c2)-c2cc1ccc2OCCN (racemic) [Compound 340, rac-(8S,11S,14S)-3,18-bis(2-aminoethoxy)-N-(cyanomethyl)-11-methyl-14-[methyl-[rac-(2S)-4-amino-2-[[2-[4-(cycloheptoxy)phenyl]-4,6-dimethyl-pyrimidine-5-carbonyl]amino]butanoyl]amino]-10,13-dioxo-9,12-diazatricyclo[13.3.1.12,6]icosa-1(18),2(20),3,5,15(19),16-hexaene-8-carboxamide] | 0.023 µM | 0.063 µM | 
9 | CCCC(CCC)Oc1ccc(-c2nc(C)c(C(=O)N[C@@H](CCN)C(=O)N(C)[C@@H]3C(=O)N[C@@H](C)C(=O)N[C@H](C(=O)NCC#N)Cc4ccc(OCCN)c(c4)-c4cc3ccc4OCCN)c(C)n2)cc1 (racemic) [Compound 341, rac-(8S,11S,14S)-3,18-bis(2-aminoethoxy)-N-(cyanomethyl)-11-methyl-14-[methyl-[rac-(2S)-4-amino-2-[[4,6-dimethyl-2-[4-(1-propylbutoxy)phenyl]pyrimidine-5-carbonyl]amino]butanoyl]amino]-10,13-dioxo-9,12-diazatricyclo[13.3.1.12,6]icosa-1(18),2(20),3,5,15(19),16-hexaene-8-carboxamide] | 0.016 µM | 0.13 µM | 
10 | Cc1nc(-c2ccc(OC(C)(C)C)cc2)nc(C)c1C(=O)N[C@@H](CCN)C(=O)N(C)[C@@H]1C(=O)N[C@@H](C)C(=O)N[C@H](C(=O)NCC#N)Cc2ccc(OCCN)c(c2)-c2cc1ccc2OCCN (racemic) [Compound 342, rac-(8S,11S,14S)-3,18-bis(2-aminoethoxy)-N-(cyanomethyl)-11-methyl-14-[methyl-[rac-(2S)-4-amino-2-[[2-(4-tert-butoxyphenyl)-4,6-dimethyl-pyrimidine-5-carbonyl]amino]butanoyl]amino]-10,13-dioxo-9,12-diazatricyclo[13.3.1.12,6]icosa-1(18),2(20),3,5,15(19),16-hexaene-8-carboxamide] | 0.097 µM | 0.39 µM | 
11 | Cc1nc(-c2ccc(COC(C)(C)C)cc2)nc(C)c1C(=O)N[C@@H](CCN)C(=O)N(C)[C@@H]1C(=O)N[C@@H](C)C(=O)N[C@H](C(=O)NCC#N)Cc2ccc(OCCN)c(c2)-c2cc1ccc2OCCN (racemic) [Compound 343, rac-(8S,11S,14S)-3,18-bis(2-aminoethoxy)-N-(cyanomethyl)-11-methyl-14-[methyl-[rac-(2S)-4-amino-2-[[2-[4-(tert-butoxymethyl)phenyl]-4,6-dimethyl-pyrimidine-5-carbonyl]amino]butanoyl]amino]-10,13-dioxo-9,12-diazatricyclo[13.3.1.12,6]icosa-1(18),2(20),3,5,15(19),16-hexaene-8-carboxamide] | 0.13 µM | 0.75 µM | 
12 | CCCC1(Oc2ccc(-c3nc(C)c(C(=O)N[C@@H](CCN)C(=O)N(C)[C@@H]4C(=O)N[C@@H](C)C(=O)N[C@H](C(=O)NCC#N)Cc5ccc(OCCN)c(c5)-c5cc4ccc5OCCN)c(C)n3)cc2)CC1 (racemic) [Compound 346, rac-(8S,11S,14S)-3,18-bis(2-aminoethoxy)-N-(cyanomethyl)-11-methyl-14-[methyl-[rac-(2S)-4-amino-2-[[4,6-dimethyl-2-[4-(1-propylcyclopropoxy)phenyl]pyrimidine-5-carbonyl]amino]butanoyl]amino]-10,13-dioxo-9,12-diazatricyclo[13.3.1.12,6]icosa-1(18),2(20),3,5,15(19),16-hexaene-8-carboxamide] | 0.016 µM | 0.13 µM | 
13 | CCCCC1(Oc2ccc(-c3nc(C)c(C(=O)N[C@@H](CCN)C(=O)N(C)[C@@H]4C(=O)N[C@@H](C)C(=O)N[C@H](C(=O)NCC#N)Cc5ccc(OCCN)c(c5)-c5cc4ccc5OCCN)c(C)n3)cc2)CC1 (racemic) [Compound 347, rac-(8S,11S,14S)-3,18-bis(2-aminoethoxy)-N-(cyanomethyl)-11-methyl-14-[methyl-[rac-(2S)-4-amino-2-[[2-[4-(1-butylcyclopropoxy)phenyl]-4,6-dimethyl-pyrimidine-5-carbonyl]amino]butanoyl]amino]-10,13-dioxo-9,12-diazatricyclo[13.3.1.12,6]icosa-1(18),2(20),3,5,15(19),16-hexaene-8-carboxamide] | 0.047 µM | 0.25 µM | 

Source: patent US20260274892A1, “MACROCYCLIC BROAD SPECTRUM ANTIBIOTICS” (RQx Pharmaceuticals, Inc., priority 2017, published 2026)
